Test results reported in patent US4946668A, “Tumor imaging with technetium labelled glucarate” (Centocor, Inc., priority 1988, dated 1990).

Test system: colorectal carcinoma (HT-29 cells)
Experiment: Detection of colorectal carcinoma (HT-29 xenograft): scintigraphic imaging and uptake of radioactivity
Format: in vivo, female athymic nude mice
Method: Colorectal carcinoma was produced in female athymic nude mice by injecting subcutaneously 1×10^7 HT-29 cells (M.D. Anderson Hospital and Tumor Institute Houston, Tex.) per mouse in the hind limb. After 4 weeks, tumor bearing mice (2 per group) were injected intravenously with either sodium per-technetate (TcO4^-) or Tc-99m-glucarate (approximately350 uCi/mouse). […] After imaging at the last time point, animals were killed, tumors and organs were weighed and quantitated for the distribution of radioactivity.

[1] = 22 hours, approximately 350 uCi/mouse i.v.

What does the source list for `[Na+].[O]=[Tc](=[O])(=[O])[O-]` [TcO4^-, sodium pertechnetate]?
% ID/gm at tumor site [1]: 0.29 ± 0.00 % ID/gm; tumor/blood [1]: 2.08 ± 0.21; tumor/muscle [1]: 12.08 ± 3.41; tumor visualization (images at 3, 5 and 24 hours): no tumor visualization was detected; uptake of radioactivity seen in scintigraphic images (images at 3, 5 and 24 hours after injection): nonspecific uptake of radioactivity at the thyroid and stomach
